Results: patent US8846066B2, “Methods and related compositions for reduction of fat and skin tightening” (The Regents of the University of California, priority 2004, dated 2014)
Values joined by “and” are separate entries in the source; they are usually repeats but may differ in a detail not shown here. Equal values may be shown once.

What was measured:
[1] = test system: HaCaT human keratinocyte cells; assay: MTS cell viability assay in cultured HaCaT cells; format: cell-based; settings: for cell viability (MTS, OD 490): 30 min at 37° C.
Experimental: To measure cell viability after detergent treatment, HaCaT human keratinocyte cells were cultured in DMEM (Dulbecco's modified Eagle's medium) supplemented with 10% fetal calf serum, penicillin, and streptomycin. […] Cell viability was determined by an absorbance spectrophotometer (at 490 nm) after 4 hour incubation with the assay at 37° C. To determine cell viability in fresh tissue, fat specimens were incubated for 4 hours in 24 well plates with stock reagents and the MTS assay. Tissue specimens were then visualized for color change and the amount of MTS in their supernatants was measured by absorbance (at 490 nm). All studies were performed in triplicate. Absorbance at 490 nm (OD 490) is proportional to the number of living cells in the culture.

[2] = test system: porcine skin (epidermis, dermis, subcutaneous tissue, muscle); assay: Histology of full thickness porcine skin after injection; settings: 0.5 mL stock reagent injected, one hour at 37° C., H&E
Experimental: Histology was performed by injecting stock reagent solutions (0.5 mL) into full thickness porcine skin at various levels (epidermis, dermis, and subcutaneous tissue) with 1.0 mL syringes and 30-gauge, 0.5 inch needles. Needle depth was visualized along the margin of the porcine tissue with the intent of saturating the target tissue. One hour after incubation with PBS at 37° C., multiple 5.0 mm biopsy specimens were obtained from the injected sites, each condition performed in triplicate. Tissue was fixed in formaldehyde, paraffin-embedded, and stained with hematoxylin-eosin. Specimens were evaluated by a board-certified dermatopathologist who was blinded to the treatment protocol.

fat deposits = assay: Injection of deoxycholate into facial fat deposits of an HIV lipodystrophy patient; format: in vivo, human; settings: 1% deoxycholate, 1 month follow up, both sides
Experimental: An HIV lipodystrophy patient with symmetrical fat deposits in their face just vental of their master muscle (sort of in their cheeks, like acorns in the mouth of a chipmunk) was injected with 1% deoxycholate. At 1 month follow up, there was a 50% apparent reduction in deposit volume on both sides.

primary adipocytes = assay: MTS survival of adipocytes after DC with or without 1% PC; format: cell-based, human; settings: 30 min; for Adipocytes surviving in DC only: MTS OD 490 nm, single wells; for Average (DC only): mean MTS OD 490 nm
Experimental: Adipocytes in adipocyte media on a 96-well dish were differentiated at 37° C. in a humidified, 5% CO2 incubator for a week. Media was aspirated and washed with 1×PBS once. Cells were treated with different concentrations of DC (from 0 to 0.5%) with or without 1% PC in 1×PBS. Each treatment was done in triplicates (Table 5). The plates were incubated at 37° C. in a humidified, 5% CO2 incubator for 30 min. The incubated plates were aspirated and washed with 1×PBS.
10 mL of MTS (3-(4,5-dimethyl-2-yl)-5-(3-carboxymethoxyphenyl)-2-(4-sulfophenyl)-2H-tetrazolium, inner salt) assay solution was prepared (mixed 40 uL MTS (Promega, Madison Wis.) per 1 mL 1×PBS). 100 ul of MTS solution was added to each well of the plates. The plates were incubated at 37° C. incubator (non-humidified) for 120 min. OD was taken with spectrophotometer at 490 nm.
FIG. 8 illustrates the survival of adipocytes in sodium deoxycholate solution and sodium deoxycholate with 1% phosphatidylcholine solution. The adipocyte cells are primary (i.e., taken freshly from a person) adipocytes, cultured in vitro to maturity before treatment with DC. On y-axis, 1 represents 100% survival when no DC is added. All % concentrations are w/v %. […] The addition of sodium deoxycholate with 1% phosphatidylcholine solution increases the LD50 by ˜5-6 fold.

A375M = assay: Killing by DC after pre-incubation with human lipoma fat, A375M; format: cell-based
Experimental: (§1) The experiment was performed on a series of immortalized melanocyte cell lines. Resected human lipomas were ground up, and DC-containing media was mixed with the human fat and agitated for 24 hours. The material was centrifuged to pellet insoluble contents. The supernatants were then added on top of cultured melanocytes. Control was the identical DC-containing media not exposed to the fat chunks. Also, fat alone (no media) was added as a control.

CHL = assay: Killing by DC after pre-incubation with human lipoma fat, CHL; format: cell-based
Experimental: as §1

WM266 = assay: Killing by DC after pre-incubation with human lipoma fat, WM266; format: cell-based
Experimental: as §1

SKmel28 = assay: Killing by DC after pre-incubation with human lipoma fat, SKmel28; format: cell-based
Experimental: as §1

lipomas = assay: Human lipoma study with sodium deoxycholate (Example 10); format: in vivo
Experimental: Six patients having 12 lipomas were injected with sodium deoxycholate (DC) solutions over a period of six months. […] Measurements were made by physical measurements and ultrasound imaging.

[3] = Control = 1.000, DC 0.1% media not exposed to fat
[4] = Control = 1.000, DC 0.1% media pre-incubated with human lipoma fat
[5] = DC 0.1% media not exposed to fat
[6] = single wells, DC 0.1% media not exposed to fat
[7] = single wells, supernatant of DC 0.1% media agitated 24 hours with human lipoma fat
[8] = supernatant of DC 0.1% media agitated 24 hours with human lipoma fat
[9] = Lipoma 1, pre-treatment size 1 cm, 1 treatment
[10] = Lipoma 4, pre-treatment size 4 × 3.5 cm, 4 treatments
[11] = Lipoma 5, pre-treatment size 2 × 1.8 cm, 4 treatments
[12] = Lipoma 6, pre-treatment size 2.8 cm, 1 treatment
[13] = Lipoma 7, pre-treatment size 3 × 2 cm, 2 treatments
[14] = Lipoma 8, pre-treatment size 1 cm, 2 treatments
[15] = Lipoma 10, pre-treatment size 2 cm, 2 treatments
[16] = Lipoma 12, pre-treatment size 1 cm, 1 treatment

C[C@H](CCC(=O)[O-])[C@H]1CC[C@H]2[C@@H]3CC[C@@H]4C[C@H](O)CC[C@]4(C)[C@H]3C[C@H](O)[C@]12C.[Na+] [DC, sodium deoxycholate]
cell viability (MTS, OD 490) ([1]; 0.005% dilution): little effect
cell viability (MTS, OD 490) ([1]; 0.05% and 0.5% concentrations): progressively decreased
viability of cultured cells (MTS, FIG. 2a) ([1]; approximately equal to the complete PBF): profoundly decreased the viability of cultured cells
histologic changes in epidermis, dermis, adnexal structures [2]: no apparent affect
histologic changes in fat [2]: Marked blurring and dissolution of adipocyte cell membranes
apparent reduction in deposit volume (fat deposits): 50%
Adipocytes surviving in DC only (primary adipocytes; DC 0.01 (w/v %)): 0.067 and 0.133 and 0.13
Adipocytes surviving in DC only (primary adipocytes; DC 0.05 (w/v %)): 0.01 and 0.009 and 0.008
Adipocytes surviving in DC only (primary adipocytes; DC 0.1 (w/v %)): 0
Adipocytes surviving in DC only (primary adipocytes; DC 0.5 (w/v %)): 0
LD50 (concentration at which 50% of the fat cells are dead) (primary adipocytes; adipocytes, w/v %): around 0.02%
Average (DC only) (primary adipocytes; DC 0.005 (w/v %)): 0.111
Average (DC only) (primary adipocytes; DC 0.01 (w/v %)): 0.131
Average (DC only) (primary adipocytes; DC 0.05 (w/v %)): 0.09
Average (DC only) (primary adipocytes; DC 0.1 (w/v %)): 0
Average (DC only) (primary adipocytes; DC 0.5 (w/v %)): 0
Percentage, DC 0.1% (A375M; [3]): 0.106
Percentage, DC 0.1% + fat (A375M; [4]): 0.662
Average, DC 0.1% (A375M; [5]): 0.064
A375M (readings), DC 0.1% (A375M; [6]): 0.066 and 0.063
Actual, DC 0.1% (A375M; [6]): 0.066 and 0.063
A375M (readings), DC 0.1% + fat (A375M; [7]): 0.456 and 0.382 and 0.365
Actual, DC 0.1% + fat (A375M; [7]): 0.456 and 0.382 and 0.365
Average, DC 0.1% + fat (A375M; [8]): 0.401
Percentage, DC 0.1% (CHL; Control = 1, DC 0.1% media not exposed to fat): 0.098
Percentage, DC 0.1% + fat (CHL; Control = 1, DC 0.1% media pre-incubated with human lipoma fat): 0.610
Average, DC 0.1% (CHL; [5]): 0.065
Actual, DC 0.1% (CHL; [6]): 0.064 and 0.066
CHL (readings), DC 0.1% (CHL; [6]): 0.064 and 0.066
Actual, DC 0.1% + fat (CHL; [7]): 0.402 and 0.426 and 0.378
CHL (readings), DC 0.1% + fat (CHL; [7]): 0.402 and 0.426 and 0.378
Average, DC 0.1% + fat (CHL; [8]): 0.402
Percentage, DC 0.1% (WM266; [3]): 0.113
Percentage, DC 0.1% + fat (WM266; [4]): 0.539
Average, DC 0.1% (WM266; [5]): 0.063
Actual, DC 0.1% (WM266; [6]): 0.07 and 0.061 and 0.058
WM266 (readings), DC 0.1% (WM266; [6]): 0.07 and 0.061 and 0.058
Actual, DC 0.1% + fat (WM266; [7]): 0.281 and 0.308 and 0.314
WM266 (readings), DC 0.1% + fat (WM266; [7]): 0.281 and 0.308 and 0.314
Average, DC 0.1% + fat (WM266; [8]): 0.301
Percentage, DC 0.1% (SKmel28; [3]): 0.098
Percentage, DC 0.1% + fat (SKmel28; [4]): 0.485
Average, DC 0.1% (SKmel28; [5]): 0.060
Actual, DC 0.1% (SKmel28; [6]): 0.061 and 0.060
SKmel28 (readings), DC 0.1% (SKmel28; [6]): 0.061 and 0.060
Actual, DC 0.1% + fat (SKmel28; [7]): 0.290 and 0.304 and 0.302
SKmel28 (readings), DC 0.1% + fat (SKmel28; [7]): 0.290 and 0.304 and 0.302
Average, DC 0.1% + fat (SKmel28; [8]): 0.299
Change in volume (%) (lipomas; [9]): −100%
Post-treatment size (lipomas; [9]): 0
Change in volume (%) (lipomas; Lipoma 3, pre-treatment size 2 × 2.5 cm, 3 treatments): 84%
Change in volume (%) (lipomas; [10]): 84%
Post-treatment size (lipomas; [10]): 2
Change in volume (%) (lipomas; [11]): 92%
Post-treatment size (lipomas; [11]): 1.3
Change in volume (%) (lipomas; [12]): 99%
Post-treatment size (lipomas; [12]): 0.5
Change in volume (%) (lipomas; [13]): 97%
Post-treatment size (lipomas; [13]): 0.8
Change in volume (%) (lipomas; [14]): 100%
Post-treatment size (lipomas; [14]): 0
Change in volume (%) (lipomas; Lipoma 9, pre-treatment size 2 × 1 cm, 2 treatments): 67%
Change in volume (%) (lipomas; [15]): 73%
Post-treatment size (lipomas; [15]): 1.3
Change in volume (%) (lipomas; Lipoma 11, pre-treatment size 2 cm, 1 treatment): 79%
Change in volume (%) (lipomas; [16]): 50%
Post-treatment size (lipomas; [16]): 0.8
size of injected lipomas (lipomas; six patients, 12 lipomas, after at least one treatment, six months): reduced in size
